PubChem BioAssay AID1645864 (Buhrlage Lab, Dana-Farber Cancer Institute and Novartis …, 2021)
Calls of active or inactive are those of the source.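 How the source made its calls: active means maximal inhibition of USP17 at or above 30% in the confirmation dose-response, a value not among the printed readouts; inactive means the rest.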

Molecular target: Ubiquitin carboxyl-terminal hydrolase 17-like protein 5 (Homo sapiens) (UniProt A8MUK1)
Test: ubiquitin-specific protease 17 DUB inhibitors, concentration-effect assay, cell-free, verification of initial screening actives (AID 1645864)
Details: purified USP17, ubiquitin-rhodamine cleavage fluorescence, 3 h

Ubiquitin carboxyl-terminal hydrolase 17-like protein 5 (Homo sapiens), sequence (A8MUK1 whole entry, looked up): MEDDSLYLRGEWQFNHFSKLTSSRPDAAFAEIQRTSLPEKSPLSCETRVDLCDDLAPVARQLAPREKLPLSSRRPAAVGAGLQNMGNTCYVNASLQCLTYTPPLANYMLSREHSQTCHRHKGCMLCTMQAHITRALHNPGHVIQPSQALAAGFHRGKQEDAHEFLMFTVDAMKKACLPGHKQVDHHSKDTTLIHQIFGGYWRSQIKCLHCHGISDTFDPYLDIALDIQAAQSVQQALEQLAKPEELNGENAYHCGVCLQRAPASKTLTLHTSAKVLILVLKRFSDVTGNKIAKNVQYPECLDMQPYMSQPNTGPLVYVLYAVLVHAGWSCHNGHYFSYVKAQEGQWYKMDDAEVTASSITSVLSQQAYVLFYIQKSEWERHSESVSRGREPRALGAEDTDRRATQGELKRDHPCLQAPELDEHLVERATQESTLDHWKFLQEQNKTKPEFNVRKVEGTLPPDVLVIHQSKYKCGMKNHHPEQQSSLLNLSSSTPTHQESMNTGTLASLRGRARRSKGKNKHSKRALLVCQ

## COc1ccc(C2CC(=O)Nc3ccc4ccccc4c32)c(OC)c1OC (stereo unspecified)
  IC50: 40.4 µM

## CNC(=O)CC1NC(=O)c2csc(n2)-c2ccc(-c3nc(C4=NC(C(=O)N5CCCC5C(N)=O)CO4)cs3)nc2-c2csc(n2)-c2csc(n2)C(C(O)c2ccccc2)NC(=O)CNC(=O)c2nc(sc2COC)C(C(C)C)NC(=O)c2nc1sc2C (stereo unspecified)
  IC50: 29.6 µM

## O=C(Nc1cccc(Cl)c1)N1CCC(c2cc(-c3ccco3)n[nH]2)CC1
  IC50: 3.52 µM

## COCCCN1CCS(=O)(=O)c2c(Cl)c(F)nc(Oc3ccc(C#N)cc3)c21
  IC50: > 50 µM (inactive)

## O=C(Nc1cccc(Cl)c1)N1CCN(c2cc(C(F)(F)F)ccn2)CC1
  IC50: 12.3 µM

## Cc1nc(C(=O)Nc2cccc(Cl)c2Cl)nn1-c1cc(Cl)cc(Cl)c1
  IC50: 0.135 µM

## CCN(CC)c1nc(F)c2c(c1F)S(=O)(=O)CCN2Cc1cccnc1
  IC50: > 50 µM (inactive)

## COc1ccc(/C=C/C(=O)N2CCc3ccccc32)cc1S(=O)(=O)N1CCOCC1
  IC50: > 50 µM (inactive)

## Cc1cc(C)c(NC(=O)CSc2nc3nccnc3c(=O)n2Cc2ccccc2Cl)c(C)c1
  IC50: 4.02 µM

## O=C1N(Cc2ccc(F)cc2)CCN1c1ccc2c(c1)CCC2
  IC50: > 50 µM (inactive)

## O=C(Nc1ccc(-c2nnc3n2CCCCC3)cc1)c1ccc2c(c1)OCO2
  IC50: > 50 µM (inactive)

## CC(=O)Nc1cc2cc(-n3cccc3)ccc2oc1=O
  IC50: 3.83 µM

## CC(C)(C)C(=O)[C@@H]1[C@@H](C(=O)c2ccc3c(c2)OCO3)[C@@]2(C(=O)Nc3ccccc32)[C@H]2c3ccccc3C=CN12
  IC50: 31.3 µM

## COc1cccc(CN2CCc3nc4nc(C)ccc4cc3C2)c1
  IC50: > 50 µM (inactive)

## Cc1nc(C(=O)NC2(O)C(=O)c3ccccc3C2=O)cs1
  IC50: 2.06 µM

## Cc1ccc(C(C)C)cc1OCCOCCN1CCNCC1
  IC50: > 50 µM (inactive)

## O=C(Cc1cccc2ccccc12)Nc1nc2ccc(F)cc2s1
  IC50: > 50 µM (inactive)

## Cc1nn(Cc2ccccc2)c(Cl)c1C(=O)NC1CCCc2ccccc21 (stereo unspecified)
  IC50: > 50 µM (inactive)

## Cc1c(CC(=O)N2CCN(c3ncccn3)CC2)c(=O)oc2cc(O)ccc12
  IC50: 24.7 µM

## COc1ccc2nc(-c3ccc(NC(=O)c4cccc(OC)c4OC)cc3)cn2n1
  IC50: 2.13 µM

## CN(CCCNC(=O)c1cccc2c1SCCC2=O)c1ccccc1
  IC50: > 50 µM (inactive)

## O=C(Cn1c(=O)n(Cc2ccc(F)cc2)c(=O)c2ncccc21)Nc1ccccc1
  IC50: 45.2 µM

## O=C(NCCCc1nc2ccccc2n1Cc1c(Cl)cccc1Cl)c1ccco1
  IC50: 36 µM

## Cc1ccc(-n2nc(C(=O)Nc3ccc(C)cn3)c3ncn(C)c(=O)c32)cc1
  IC50: 2.65 µM

## CC1=C(c2ccc(Cl)cc2)S(=O)(=O)NC1=NCC(=O)Nc1ccc(F)cc1
  IC50: 20.3 µM

## CC(C)(C)C(=O)C1C2C(=O)N(c3ccc4c(c3)OCO4)C(=O)C2C2c3ccccc3C=CN12 (stereo unspecified)
  IC50: > 50 µM (inactive)

## CCOc1ccccc1NC(=O)Cn1c(-c2ccc3c(c2)OCO3)cn(-c2ccc(OC)cc2)c1=O
  IC50: > 50 µM (inactive)

## COc1cccc(NC(=O)c2nnn(-c3ccccc3)n2)c1
  IC50: > 50 µM (inactive)

## COc1ccc(NC(=O)CC(=O)c2ccc([N+](=O)[O-])cc2)cc1S(=O)(=O)Nc1ccc(Br)cc1
  IC50: 22 µM

## Cc1c(-c2nc(-c3ccccc3Cl)no2)nnn1-c1cccc(F)c1
  IC50: 6.66 µM

## COc1ccc(OC)c(NC(=O)C2=C(C)Nc3ncnn3C2c2ccccc2OCc2ccc(C)cc2)c1 (stereo unspecified)
  IC50: 12.2 µM

## COc1ccc2[nH]cc(S(=O)(=O)c3ccc(C)c(F)c3)c(=O)c2c1
  IC50: 48 µM

## COc1ccc(NC(=O)c2ccnc(Nc3ccc(OC)cc3)c2)cc1
  IC50: 42.4 µM

## O=C(CSc1nc2cc(C(F)(F)F)ccc2s1)NCC(=O)c1ccccc1
  IC50: 1.86 µM

## Cc1ccc(Nc2nc(Nc3cccc(F)c3)nc3nccnc23)c(C)c1
  IC50: > 50 µM (inactive)

## COc1ccc(OCC(=O)Nc2ccc(C)c(OCc3cc(=O)n4ccccc4n3)c2)cc1
  IC50: 4.29 µM

## N#Cc1ccc(Cc2ncc(C(F)(F)F)cc2Cl)s1
  IC50: > 50 µM (inactive)

## CCOc1ccc(NC(=O)Cn2c(=O)n(CCC(=O)NCc3ccccc3OC)c(=O)c3ccccc32)cc1
  IC50: 4.35 µM

## CCc1nc2cc(NC(=O)c3cccc(N4CCCC4=O)c3)ccc2n1C
  IC50: > 50 µM (inactive)

## Cn1ncc2c(=O)n(Cc3cccc(Cl)c3)cnc21
  IC50: > 50 µM (inactive)

## Cc1ccccc1-c1nc(CN(C)S(=O)(=O)c2ccccc2)c(C)o1
  IC50: > 50 µM (inactive)

## O=C(NCCc1ccccn1)c1cc(-c2ccc(Br)cc2)n[nH]1
  IC50: 17.9 µM

## CN1CCN(C(=O)c2cc(-c3ccn(-c4ccccc4)n3)n3ccccc23)CC1
  IC50: > 50 µM (inactive)

## CCCC(=O)c1c[nH]c(C(=O)NCc2ccc(F)cc2)c1
  IC50: 14.5 µM

## Cc1cccc(CNC(=O)C2CCCN(S(=O)(=O)Cc3ccc(F)cc3)C2)c1 (stereo unspecified)
  IC50: 19.1 µM

## CCc1c(Cl)c(O)c(Cl)c(O)c1C(=O)O[C@H]1C(C)O[C@@H](OC/C2=C\C=C\CC(O)/C(C)=C/C(CC)C(O[C@@H]3OC(C)(C)[C@H](O)C(OC(=O)C(C)C)[C@@H]3O)/C(C)=C/C(C)=C/CC(C(C)O)OC2=O)[C@@H](OC)C1O (stereo partly specified)
  IC50: > 50 µM (inactive)

## Cc1ccc(C(=O)Nc2ccc3c(c2)C(=O)N(C)c2ccccc2O3)cc1C
  IC50: > 50 µM (inactive)

## O=C(Nc1ccc2c(c1)OCCO2)Nc1nnc(CC(=O)N2CCCCC2)s1
  IC50: > 50 µM (inactive)

## COc1cccc(-c2nc(C(N)=O)c3[nH]c(=O)n(-c4cccc(Cl)c4)c3n2)c1OC
  IC50: > 50 µM (inactive)

## O=C(COc1cccc(-n2cnnn2)c1)Nc1ccc2c(c1)OCCO2
  IC50: > 50 µM (inactive)

## CCNc1oc(-c2ccc(S(=O)(=O)N3CCCCC3)cc2)nc1C#N
  IC50: 24.2 µM

## Cc1cc(NC(=O)Cn2c(=O)n(CCCCC(=O)NCc3ccco3)c(=O)c3ccccc32)ccc1Br
  IC50: 2.84 µM

## O=C(NCc1ccccc1)Nc1cccc2ccccc12
  IC50: 34 µM

## O=C(Cc1cc(-c2ccccc2)on1)NCc1c(F)cccc1F
  IC50: 28.1 µM

## Cc1cc(C)c(NC(=O)Cn2c(=O)n(CCC(=O)NCc3ccc4c(c3)OCO4)c(=O)c3sccc32)c(C)c1
  IC50: 3.02 µM

## COc1cccc2c1NC(=O)C21CCN(C(=O)Nc2cccc(C)c2)CC1
  IC50: 20.1 µM

## CCCCc1nc2sc3c(NCCN4CCOCC4)ncnc3c2c2c1CCC2
  IC50: > 50 µM (inactive)

## Clc1cccc(N2CCN(c3ncnc4nc[nH]c34)CC2)c1
  IC50: > 50 µM (inactive)

## O=C(NCCc1ccco1)c1ccc(N2CCOc3ccccc32)s1
  IC50: 15.4 µM

## Cc1ccc(-c2nc(NC(=O)Nc3ccc(Cl)cc3)sc2C)cc1
  IC50: 19.6 µM

## CCc1cc2cc3c(cc2nc1SCC(=O)Nc1cccc(C(C)=O)c1)OCO3
  IC50: 2.29 µM

## Cc1nc(N2CCCC2)ncc1-c1cc(=O)[nH]c(N2CCc3ccccc3C2)n1
  IC50: 21.6 µM

## CC(C)c1ccc(NC(=O)c2cc3ncc(Br)cn3n2)cc1
  IC50: 1.73 µM

## COc1ccc(CNC(=O)CN2C(=O)C(C)=C(c3ccc(C)cc3)S2(=O)=O)cc1
  IC50: > 50 µM (inactive)

## O=C(NCCn1ccc2ccccc21)c1cc2ccccc2oc1=O
  IC50: 29.8 µM

## COc1ccc(NC(=O)C2[C@@H]3C(=O)N(C4CCCCC4)C(=O)[C@@H]3[C@H]3c4ccccc4C=CN23)cc1 (stereo partly specified)
  IC50: 46.9 µM

## CC1CCN(c2cc(-n3cnc(C(=O)N4CCCC(C)C4)c3)ncn2)CC1 (stereo unspecified)
  IC50: > 50 µM (inactive)

## COc1ccccc1C(=O)NCC(c1ccc2c(c1)CCCN2C)N1CCCC1 (stereo unspecified)
  IC50: > 50 µM (inactive)

## O=C1N[C@@H](Cc2ccccc2)C(=O)N2[C@H]3Nc4ccccc4[C@@]3([C@]34C[C@H]5C(=O)N[C@@H](Cc6ccccc6)C(=O)N5[C@H]3Nc3ccccc34)C[C@@H]12
  IC50: 38.4 µM

## N#Cc1c(-c2cccs2)cc(-c2cccs2)[nH]c1=O
  IC50: > 50 µM (inactive)

## COCCNC(=O)c1cc(-c2cn(-c3ccccn3)c(C)n2)n2ccccc12
  IC50: > 50 µM (inactive)

## CCOc1ccc(NC(=O)COc2cccc3c2CCN(CC)C3=O)cc1
  IC50: > 50 µM (inactive)

## COc1cc(OC)cc(-n2c(=O)c3sccc3n(CC(=O)Nc3ccc(C)cc3)c2=O)c1
  IC50: 10.1 µM

## CCC(=O)N1c2ccccc2NC2=C(C(=O)CC(c3ccccc3OCc3ccccc3)C2)C1c1ccccc1 (stereo unspecified)
  IC50: 4.4 µM

## CO/C=C/C(=O)c1cc2cnc3c(=N)cc(NC(C)=O)c([nH]1)c23
  IC50: > 50 µM (inactive)

## CCOC(=O)c1cccc(NC(=O)Nc2cccn3nc(C)nc23)c1
  IC50: > 50 µM (inactive)

## CC1OC(CC(=O)O)CC23OC12C(=O)c1c(O)cccc1C3=O (stereo unspecified)
  IC50: 1.33 µM

## O=C(Nc1nc2c(ccc3ccccc32)s1)c1cccc(Br)c1
  IC50: 2.7 µM

## Cc1cc(=O)n(CC(=O)Nc2ccccc2C)c(Nc2ccc(F)cc2)n1
  IC50: 26.8 µM

## Cc1ccc(-c2nc(Cn3nnc(-c4nc(-c5ccccn5)no4)c3C)c(C)o2)cc1
  IC50: > 50 µM (inactive)

## Cc1ccc(Cn2cc(-c3noc(-c4ccncc4)n3)nn2)cc1
  IC50: 28.6 µM

## CC1CCc2c(sc3nc(CC#N)[nH]c(=O)c23)C1 (stereo unspecified)
  IC50: > 50 µM (inactive)

## Cn1cc(NC(=O)Nc2cccc3ccccc23)c2ccccc21
  IC50: 32.7 µM

## Fc1ccccc1Cc1nc(-c2ccc3nncn3c2)no1
  IC50: > 50 µM (inactive)

## CCC1OC(O)(C(C)C(O)C(C)C2OC(=O)/C(C)=C/C(C)=CC(C)C(O)C(C)C/C(C)=C/C=C/C2OC)CC(OC(=O)/C=C/C(=O)NC2=C(O)CCC2=O)C1C (stereo unspecified)
  IC50: > 50 µM (inactive)

## CCCCCn1c(Sc2ccc(C)cc2)nc2c1c(=O)[nH]c(=O)n2C
  IC50: 16.3 µM

## O=C(c1cn(-c2cccc(F)c2)nn1)N1CCc2ccccc2C1
  IC50: 18.5 µM

## Cc1csc2ncc(C(=O)N3CCN(c4ccccc4F)CC3)c(=O)n12
  IC50: > 50 µM (inactive)

## COc1ccc(NC(=O)Cn2cc(C(=O)c3ccc(C)cc3)c(=O)c3ccccc32)cc1
  IC50: 1.98 µM

## CC1=CN2C(=N)/C(=C/c3cn(Cc4ccc(Cl)cc4)c4ccccc34)C(=O)N=C2S1
  IC50: > 50 µM (inactive)

## Cc1cccc(CNC(=O)c2ccc(-c3nnc(-c4cccc(C)c4)o3)cc2)c1
  IC50: 5.03 µM

## CCn1cnc2ccc(C(=O)NC3CC3)cc2c1=O
  IC50: > 50 µM (inactive)

## COc1cnc(CSc2ncccn2)cc1OCC(=O)Nc1cc(C)ccc1C
  IC50: > 50 µM (inactive)

## O=C(OC1CSc2nc3ccccc3n2C1)c1ccc([N+](=O)[O-])o1 (stereo unspecified)
  IC50: 30.5 µM

## Cc1cnc(CN2CCCC(c3ccc4cn[nH]c4n3)C2)cn1 (stereo unspecified)
  IC50: > 50 µM (inactive)

## O=C(Oc1ccc(-c2cnc3ccccc3n2)cc1)c1ccc(F)cc1
  IC50: 6.4 µM
